This passage reports IC50 results from patent US8329726B2, “Inhibitors of VEGF receptor and HGF receptor signaling” (MethylGene Inc., priority 2005, dated 2012).

For one test, the target named is T1, VEGF receptor KDR (Homo sapiens, UniProt P35968).
T1 construct: made in house; host or cells: Sf9 cells (Spodoptera frugiperda), baculovirus
Put plainly: In vitro receptor tyrosine kinase assay (DELFIA), VEGF receptor KDR. The note with it: read-out: VEGFR IC50. Format: biochemical. The procedure: In the case of VEGF receptor KDR a 1.6-kb cDNA corresponding to the catalytic domain of VEGFR2 or KDR (Genbank accession number AF035121 amino acid 806 to 1356) was cloned into the Pst I site of the pDEST20 Gateway vector (Invitrogen) for the production of a GST-tagged version of that enzyme.
The GST-VEGFR2806-1356 protein was expressed in […] (Spodoptera frugiperda) upon infection with recombinant baculovirus construct. […] Cell pellets were frozen at −80° C. until purification was performed.
The supernatant (cell extract) was used as starting material for purification of GST-VEGFR2806-1356.
The supernatant was loaded onto a GST-agarose column (Sigma) equilibrated with PBS pH 7.3. Following a four column volume (CV) wash with PBS pH 7.3+1% Triton X-100 and 4 CV wash with buffer B (50 mM Tris pH 8.0, 20% glycerol and 100 mM NaCl), bound proteins were step eluted with 5 CV of buffer B supplemented with 5 mM DTT and 15 mM glutathion. GST-VEGFR2806-1356 enriched fractions from this chromatography step were pooled based on U.V. trace i.e. fractions with high O.D.280. Final GST-VEGFR2806-1356 protein preparations concentrations were about 0.7 mg/ml with purity approximating 70%.
(§1) The coated plates were washed and stored at 4° C. […] After incubation, the kinase reactions were quenched with EDTA and the plates were washed.

In the next test the test system is DU145. Put plainly: DU145 scattering inhibition (HGF dependent scattering). The note with it: Homo sapiens, DU-145; HGF dependent scattering, DU145 cells; read-out: DU145 SCATTERING INHIB IC50. The test is classed as cell-based. An excerpt: (§2) HGF has well known activity in terms of inducing scattering and migration (wound healing) (Wells et al., Cell Motil Cytoskeleton. 2005 November 62(3):180-94; Miura et al., Urology 2001 December 58(6):1064-9; Nishimura et al., Int J Urol. 1998 May 5(3):276-81; Wang et al., Mol Cancer Ther. 2003 November; 2(11):1085-92; and Christensen et al., Cancer Res. 2003 Nov. 1; 63(21):7345-55).

The test system of another test is A549. The test can be described thus: A549 wound healing inhibition (HGF dependent migration). The test is classed as cell-based. The note with it: Homo sapiens, A549 cells, read-out: A549 WOUND HEALING INHIB IC50.
Excerpt: as §2

The target in test [1] is T2, recombinant human c-Met/HGF receptor (Homo sapiens, UniProt P08581).
T2 construct: His tag (pBlueBacHis2A vector); made in house; host or cells: Hi-5 cells (Trichoplusia ni), baculovirus
The test can be described thus: In vitro receptor tyrosine kinase assay (DELFIA), c-Met/HGF receptor. Format: biochemical. Conditions: read-out: CMET IC50. The procedure: Cell pellets were frozen at −80° C. until purification was performed.
as §1

T2 sequence (P08581 1078-1337): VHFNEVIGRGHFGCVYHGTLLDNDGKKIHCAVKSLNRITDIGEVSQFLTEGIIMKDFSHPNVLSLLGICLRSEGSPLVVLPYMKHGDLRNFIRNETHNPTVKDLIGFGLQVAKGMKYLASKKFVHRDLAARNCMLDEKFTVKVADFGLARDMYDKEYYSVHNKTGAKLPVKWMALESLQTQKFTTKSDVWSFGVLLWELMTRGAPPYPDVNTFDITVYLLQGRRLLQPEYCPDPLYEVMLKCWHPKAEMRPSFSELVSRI
T1 sequence (P35968 806-1356): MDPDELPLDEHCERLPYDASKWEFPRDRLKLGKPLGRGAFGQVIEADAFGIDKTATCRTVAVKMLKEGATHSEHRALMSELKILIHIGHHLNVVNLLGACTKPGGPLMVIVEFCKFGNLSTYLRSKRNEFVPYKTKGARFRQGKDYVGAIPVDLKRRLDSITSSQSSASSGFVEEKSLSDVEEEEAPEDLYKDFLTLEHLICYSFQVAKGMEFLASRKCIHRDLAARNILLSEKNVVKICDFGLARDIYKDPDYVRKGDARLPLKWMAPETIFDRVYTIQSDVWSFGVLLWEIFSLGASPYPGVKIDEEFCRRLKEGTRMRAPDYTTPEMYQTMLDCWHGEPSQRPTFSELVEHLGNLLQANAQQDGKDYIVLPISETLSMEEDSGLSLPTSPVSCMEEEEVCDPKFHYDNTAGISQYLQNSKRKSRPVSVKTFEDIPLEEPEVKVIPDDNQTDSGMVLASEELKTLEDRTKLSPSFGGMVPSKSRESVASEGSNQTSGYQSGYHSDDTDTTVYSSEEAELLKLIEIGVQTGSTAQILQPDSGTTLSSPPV

In the case of `CN1CCN(Cc2ccc(-c3cc4nccc(Oc5ccc(NC(=O)C6(C(=O)Nc7ccc(F)cc7)CC6)cc5F)c4s3)cc2)CC1`, the half-maximal inhibitory concentration (IC50) was under 50 nM at VEGF receptor KDR, under 1000 nM in the test with DU145, under 1000 nM in the test on A549 and under 50 nM in test [1].
With `CCn1cnc(-c2cc3nccc(Oc4ccc(NC(=O)N5CCN(c6ccc(F)cc6)C5=O)cc4F)c3s2)c1`, the IC50 is under 50 nM at VEGF receptor KDR, under 1000 nM in the test on DU145, under 1000 nM in the test on A549 and under 50 nM in test [1].
For the molecule `CN(C)[C@H]1CCN(C(=O)c2cc3nccc(Oc4ccc(NC(=O)N5CCN(c6ccccc6)C5=O)cc4F)c3s2)C1`, the IC50 was under 50 nM at VEGF receptor KDR, under 1000 nM with DU145, under 1000 nM in the test with A549 and under 50 nM in test [1].
On to `CN(C(=O)CC(=O)Nc1ccc(Oc2ccnc3cc(-c4cn(C)cn4)sc23)c(F)c1)c1ccccc1`, for which the IC50 at VEGF receptor KDR is under 50 nM; in the test on DU145 it was under 1000 nM; in the test with A549 it was under 1000 nM; in test [1], 50 to 250 nM.
Turning to `Cn1cnc(-c2cc3nccc(Oc4ccc(NC(=O)C5(C(=O)Nc6ccc(F)cc6)CC5)cc4F)c3s2)c1`, the IC50 at VEGF receptor KDR was under 50 nM; in the test with DU145 it was under 1000 nM; with A549, under 1000 nM; in test [1] it was under 50 nM.
Take `Cn1cnc(-c2cc3nccc(Oc4ccc(NC(=O)C5CCN(c6ccccc6)C5=O)cc4F)c3s2)c1` (centres unmarked): the IC50 at VEGF receptor KDR is under 50 nM; in the test on DU145 it was under 1000 nM; in the test with A549, under 1000 nM; in test [1], under 50 nM.
As for `Cn1cnc(-c2cc3nccc(Oc4ccc(NC(=O)N5CCN(c6ccc(F)cc6)C5=O)cc4F)c3s2)c1`, the IC50 was under 50 nM on VEGF receptor KDR, under 1000 nM with DU145, under 1000 nM in the test with A549 and under 50 nM in test [1].
Consider `CN1CCN(CCN(C)Cc2ccc(-c3cc4nccc(Oc5ccc(NC(=O)C6(C(=O)Nc7ccc(F)cc7)CC6)cc5F)c4s3)cc2)CC1`, for which the 50% inhibitory concentration (IC50) at VEGF receptor KDR was under 50 nM; in the test with DU145, under 1000 nM; with A549 it was 1000 to 5000 nM; in test [1], under 50 nM.
Take `CN(C)CC#Cc1cc2nccc(Oc3ccc(NC(=O)CC(=O)Nc4ccccc4F)cc3F)c2s1`: the IC50 on VEGF receptor KDR is 50 to 250 nM; in the test with DU145, 1000 to 5000 nM; with A549, over 10000 nM; in test [1], 50 to 250 nM.
For `CCn1cnc(-c2cc3nccc(Oc4ccc(NC(=O)CC(=O)Nc5cccc(OC)c5)cc4F)c3s2)c1`, the IC50 on VEGF receptor KDR was under 50 nM; in the test with DU145, 1000 to 5000 nM; in the test with A549, 1000 to 5000 nM; in test [1] it was 50 to 250 nM.
On to `COc1ccccc1NC(=O)C1(C(=O)Nc2ccc(Oc3ccnc4cc(-c5cn(CCN6CCCC6)cn5)sc34)c(F)c2)CC1`, for which the IC50 on VEGF receptor KDR is under 50 nM; in the test with DU145 it was under 1000 nM; with A549, under 1000 nM; in test [1], under 50 nM.
Consider `Cn1ccnc1-c1cc2nccc(Oc3ccc(NC(=S)N4CCN(c5ccc(F)cc5)C4=O)cc3F)c2s1`, for which the IC50 at VEGF receptor KDR is under 50 nM; in the test on DU145, under 1000 nM; in the test with A549, under 1000 nM; in test [1] it was 50 to 250 nM.
With `CN(C(=O)CC(=O)Nc1ccc(Oc2ccnc3cc(-c4cn(CCCN5CCCC5)cn4)sc23)c(F)c1)c1ccccc1`, the IC50 at VEGF receptor KDR is under 50 nM; in the test with DU145, under 1000 nM; with A549 it was 1000 to 5000 nM; in test [1], under 50 nM.
On to `CCn1cnc(-c2cc3nccc(Oc4ccc(NC(=S)N5CCN(c6ccccc6)C5=O)cc4F)c3s2)c1`, for which the IC50 is under 50 nM at VEGF receptor KDR, under 1000 nM with DU145, under 1000 nM in the test on A549 and under 50 nM in test [1].
Consider `Cn1cnc(-c2cc3nccc(Oc4ccc(NC(=O)CC(=O)Nc5ccccc5F)cc4F)c3s2)c1`, for which the half-maximal inhibitory concentration (IC50) on VEGF receptor KDR was under 50 nM; in the test on DU145 it was under 1000 nM; with A549, under 1000 nM; in test [1], under 50 nM.
For `COc1ccccc1NC(=O)CC(=O)Nc1ccc(Oc2ccnc3cc(-c4ccc(OCCN5CCOCC5)cc4)sc23)c(F)c1`, the half-inhibitory concentration (IC50) at VEGF receptor KDR is under 50 nM; with DU145 it was 1000 to 5000 nM; in the test on A549 it was 1000 to 5000 nM; in test [1] it was 50 to 250 nM.
Turning to `O=C(Nc1ccc(Oc2ccnc3cc(-c4cn(CCCN5CCCC5)cn4)sc23)c(F)c1)N1CCN(c2ccccc2F)C1=O`, the half-inhibitory concentration (IC50) was under 50 nM on VEGF receptor KDR, over 10000 nM in the test with DU145, 5000 to 10000 nM with A549 and 50 to 250 nM in test [1].
The corresponding values for `CN(C)CCn1cnc(-c2cc3nccc(Oc4ccc(NC(=O)CC(=O)Nc5ccccc5)cc4F)c3s2)c1` are under 50 nM, under 1000 nM, under 1000 nM and under 50 nM.
Take `CC(C)n1cnc(-c2cc3nccc(Oc4ccc(NC(=O)C5CC(=O)N(c6ccccc6)C5)cc4F)c3s2)c1` (centres unmarked): the IC50 was over 500 nM at VEGF receptor KDR, over 10000 nM in the test on DU145, 1000 to 5000 nM in the test on A549 and 250 to 500 nM in test [1].
The corresponding values for `Cn1cnc(-c2cc3nccc(Oc4ccc(NC(=O)CC(=O)Nc5ccccc5)cc4F)c3s2)c1` [drawing 287] are under 50 nM, under 1000 nM, under 1000 nM and under 50 nM.
Take `CCn1cnc(-c2cc3nccc(Oc4ccc(NC(=O)CC(=O)N(C)c5ccccc5)cc4F)c3s2)c1`: the 50% inhibitory concentration (IC50) was under 50 nM on VEGF receptor KDR, under 1000 nM in the test with DU145, under 1000 nM in the test on A549 and under 50 nM in test [1].
As for `COc1ccccc1NC(=O)CC(=O)Nc1ccc(Oc2ccnc3cc(C4=CCCN(C)C4)sc23)c(F)c1`, the IC50 at VEGF receptor KDR lay in the range of 250 to 500 nM; in the test on DU145, 1000 to 5000 nM; in the test with A549, 1000 to 5000 nM; in test [1] it was 50 to 250 nM.
Consider `CN1CCN(CCN(C)Cc2ccc(-c3cc4nccc(Oc5ccc(NC(=O)N6CCN(c7ccccc7)C6=O)cc5F)c4s3)cc2)CC1`, for which the IC50 is under 50 nM at VEGF receptor KDR, 1000 to 5000 nM in the test with DU145, over 10000 nM with A549 and under 50 nM in test [1].
Take `CN(C(=O)C1(C(=O)Nc2ccc(Oc3ccnc4cc(-c5cn(C)cn5)sc34)c(F)c2)CC1)c1ccccc1`: the IC50 on VEGF receptor KDR is 50 to 250 nM; in the test with DU145, 1000 to 5000 nM; in the test with A549 it was under 1000 nM; in test [1], over 500 nM.
Taken in the same sequence, the figures for `CCn1cnc(-c2cc3nccc(Oc4ccc(NC(=O)CC(=O)Nc5ccc(F)cc5)cc4F)c3s2)c1` were under 50 nM, under 1000 nM, under 1000 nM and under 50 nM.
Taken in the same sequence, the figures for `CCn1cnc(-c2cc3nccc(Oc4ccc(NC(=O)C5CCN(c6ccccc6)C5=O)cc4F)c3s2)c1` (centres unmarked) were under 50 nM, under 1000 nM, under 1000 nM and under 50 nM.
For `Cn1ccnc1-c1cc2nccc(Oc3ccc(NC(=O)N4CCN(c5ccc(F)cc5)C4=O)cc3F)c2s1`, the IC50 at VEGF receptor KDR was under 50 nM; with DU145, under 1000 nM; with A549, under 1000 nM; in test [1], 50 to 250 nM.
Regarding `COc1ccccc1NC(=O)CC(=O)Nc1ccc(Oc2ccnc3cc(-c4ccc(OCCCN(C)C)c(OCCCN(C)C)c4)sc23)c(F)c1`, the IC50 at VEGF receptor KDR was 50 to 250 nM; in the test on DU145, over 10000 nM; in the test with A549, over 10000 nM; in test [1] it was under 50 nM.
With `Cn1ccnc1-c1cc2nccc(Sc3ccc(NC(=O)N4CCN(c5ccccc5)C4=O)cc3)c2s1`, the IC50 is 50 to 250 nM at VEGF receptor KDR, under 1000 nM in the test on DU145, under 1000 nM in the test on A549 and under 50 nM in test [1].
`COc1ccccc1NC(=O)CC(=O)Nc1ccc(Oc2ccnc3cc(-c4cccc(CN(C)C)c4)sc23)c(F)c1`: the concentration for half-maximal inhibition (IC50) on VEGF receptor KDR was 50 to 250 nM; in the test on DU145, under 1000 nM; in the test with A549 it was under 1000 nM; in test [1] it was under 50 nM.
For the molecule `CN1CCN(Cc2ccc(-c3cc4nccc(Oc5ccc(NC(=O)CC(=O)Nc6ccccc6)cc5F)c4s3)nc2)CC1`, the IC50 on VEGF receptor KDR was under 50 nM; in the test on DU145, under 1000 nM; with A549 it was 1000 to 5000 nM; in test [1], under 50 nM.
Consider `CCN(CC)CCn1cnc(-c2cc3nccc(Oc4ccc(NC(=O)CC(=O)N(C)c5ccccc5)cc4F)c3s2)c1`, for which the IC50 is under 50 nM on VEGF receptor KDR, under 1000 nM in the test with DU145, under 1000 nM in the test on A549 and 50 to 250 nM in test [1].
